Assay results taken from patent publication US12540131B2 (Merck Sharp & Dohme LLC, priority 2019, dated 2026).

Molecular target: GST tagged truncated human mutant G2019S LRRK2 (Homo sapiens (Human), UniProt Q5S007, G2019S)
Experiment: LRRK2 Km ATP LanthaScreen Assay
Type: biochemical
Details: G2019S LRRK2, 134 μM ATP (Km ATP), mean values
How it was run: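 Enzyme (GST-tagged, truncated) was preincubated with compound for 15 min at RT in 50 mM Tris pH 8.5, 10 mM MgCl2, 0.01% Brij-35, 1 mM EGTA, 2 mM DTT and 0.05 mM orthovanadate. Fluorescein-LRRKtide and 134 μM ATP (Km) were then added for 90 min. EDTA and Tb-anti-pERM antibody stopped the reaction; the TR-FRET 520/495 ratio gave 4-parameter IC50s, reported as mean pIC50.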

Sequence of GST tagged truncated human mutant G2019S LRRK2 (Q5S007 970-2527 G2019S): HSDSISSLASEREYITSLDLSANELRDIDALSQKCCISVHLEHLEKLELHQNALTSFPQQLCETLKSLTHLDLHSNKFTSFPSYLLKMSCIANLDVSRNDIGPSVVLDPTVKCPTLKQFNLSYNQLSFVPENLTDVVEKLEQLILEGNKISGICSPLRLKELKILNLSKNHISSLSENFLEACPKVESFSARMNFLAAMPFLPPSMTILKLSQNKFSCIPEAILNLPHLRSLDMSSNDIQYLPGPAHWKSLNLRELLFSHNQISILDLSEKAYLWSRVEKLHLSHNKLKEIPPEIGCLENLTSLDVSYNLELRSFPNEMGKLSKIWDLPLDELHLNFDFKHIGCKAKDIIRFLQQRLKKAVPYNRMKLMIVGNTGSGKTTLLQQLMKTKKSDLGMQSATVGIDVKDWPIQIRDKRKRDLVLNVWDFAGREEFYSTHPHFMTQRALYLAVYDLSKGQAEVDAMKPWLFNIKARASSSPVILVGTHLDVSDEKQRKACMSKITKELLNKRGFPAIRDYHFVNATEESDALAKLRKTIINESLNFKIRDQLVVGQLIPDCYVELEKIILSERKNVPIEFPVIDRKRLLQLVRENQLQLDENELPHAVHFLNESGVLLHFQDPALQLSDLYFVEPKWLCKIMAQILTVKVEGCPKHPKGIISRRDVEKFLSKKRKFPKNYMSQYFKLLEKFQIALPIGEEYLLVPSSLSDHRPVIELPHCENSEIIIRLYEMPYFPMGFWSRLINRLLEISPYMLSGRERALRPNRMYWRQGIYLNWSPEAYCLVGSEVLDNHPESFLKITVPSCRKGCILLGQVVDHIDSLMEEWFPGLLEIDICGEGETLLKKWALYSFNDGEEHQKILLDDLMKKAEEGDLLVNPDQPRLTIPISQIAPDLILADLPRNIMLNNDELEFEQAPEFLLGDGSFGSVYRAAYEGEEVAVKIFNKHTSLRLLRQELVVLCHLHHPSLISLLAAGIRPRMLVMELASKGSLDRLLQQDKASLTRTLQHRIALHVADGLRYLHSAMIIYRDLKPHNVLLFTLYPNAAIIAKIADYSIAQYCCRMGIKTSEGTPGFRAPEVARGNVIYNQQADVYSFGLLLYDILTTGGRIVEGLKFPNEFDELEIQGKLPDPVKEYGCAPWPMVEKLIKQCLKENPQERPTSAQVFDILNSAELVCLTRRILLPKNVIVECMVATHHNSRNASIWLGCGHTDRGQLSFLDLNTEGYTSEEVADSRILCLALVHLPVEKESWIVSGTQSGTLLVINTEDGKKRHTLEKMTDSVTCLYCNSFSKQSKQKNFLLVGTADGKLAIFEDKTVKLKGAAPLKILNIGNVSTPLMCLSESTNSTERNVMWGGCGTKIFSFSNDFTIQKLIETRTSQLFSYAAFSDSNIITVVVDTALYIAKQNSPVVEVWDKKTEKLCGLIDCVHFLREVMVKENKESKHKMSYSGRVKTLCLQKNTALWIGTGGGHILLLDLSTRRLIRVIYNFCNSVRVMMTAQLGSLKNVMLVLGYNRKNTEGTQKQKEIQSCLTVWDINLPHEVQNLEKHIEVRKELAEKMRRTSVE

| SMILES | LRRK2 pIC50 | IC50 (read-out: LRRK2 pIC50 (converted)) [nM] |
| --- | --- | --- |
| Cc1cc2cnc(Nc3cnn(C4CC4)c3C)nc2cc1C1CCN([C@@]2(C)COC[C@H]2O)CC1 (single isomer, unassigned) [Ex-2.38, (3S,4S) or (3R,4R) 4-(4-{2-[(1-cyclopropyl-5-methyl-1H-pyrazol-4-yl)amino]-6-methylquinazolin-7-yl}piperidin-1-yl)-4-methyloxolan-3-ol] | >9.20 | – |
| Cc1cc2cnc(Nc3cnn(C4CC4)c3C)nc2cc1C1CCN([C@]2(C)COC[C@@H]2O)CC1 (single isomer, unassigned) [Ex-2.39, (3S,4S) or (3R,4R) 4-(4-{2-[(1-cyclopropyl-5-methyl-1H-pyrazol-4-yl)amino]-6-methylquinazolin-7-yl}piperidin-1-yl)-4-methyloxolan-3-ol] | 8.09 | – |
| OC1COCC1n1ncc(Nc2ncc3cc(Cl)c(C4CCN(C5COC5)CC4)cc3n2)c1Cl (single isomer, unassigned) [Ex-2.47, (3S,4S) or (3R,4R) or (3S,4R) or (3R,4S) 4-[5-chloro-4-({6-chloro-7-[1-(oxetan-3-yl)piperidin-4-yl]quinazolin-2-yl}amino)-1H-pyrazol-1-yl]oxolan-3-ol] | 9.11 | – |
| Cc1c(Nc2ncc3cc(Cl)c(C4CCN(C5COCC5C#N)CC4)cc3n2)cnn1C1CC1 (single isomer, unassigned) [Ex-2.49, (3S,4S) or (3R,4R) or (3S,4R) or (3R,4S) 4-(4-{6-chloro-2-[(1-cyclopropyl-5-methyl-1H-pyrazol-4-yl)amino]quinazolin-7-yl}piperidin-1-yl)oxolane-3-carbonitrile] | 8.88 | – |
| Cc1c(Nc2ncc3cc(Cl)c(C4CCN(C5COCC5C#N)CC4)cc3n2)cnn1C1CC1 (single isomer, unassigned) [Ex-2.50, (3S,4S) or (3R,4R) or (3S,4R) or (3R,4S) 4-(4-{6-chloro-2-[(1-cyclopropyl-5-methyl-1H-pyrazol-4-yl)amino]quinazolin-7-yl}piperidin-1-yl)oxolane-3-carbonitrile] | 9.13 | – |
| Cc1cc(Nc2ncc3cc(Cl)c(C4CCN([C@H]5COC[C@H]5O)CC4)cc3n2)sn1 (single isomer, unassigned) [Ex-2.55, (3S,4S) or (3R,4R)4-(4-{6-chloro-2-[(3-methyl-l,2-thiazol-5-yl)amino]quinazolin-7-yl}piperidin-1-yl)oxolan-3-ol] | >9.20 | – |
| Cc1c(Nc2ncc3cc(Cl)c(C4CCN([C@@]5(C)COC[C@H]5O)CC4)cc3n2)cnn1C (single isomer, unassigned) [Ex-2.65, (3S,4S) or (3R,4R) 4-(4-{6-chloro-2-[(1,5-dimethyl-1H-pyrazol-4-yl)amino]quinazolin-7-yl}piperidin-1-yl)-4-methyloxolan-3-ol] | 7.84 | – |
| Cn1ncc(Nc2ncc3cc(Cl)c(C4CCN([C@H]5COC[C@H]5O)CC4)cc3n2)c1Cl (single isomer, unassigned) [Ex-2.66, (3S,4S) or (3R,4R) 4-(4-{6-chloro-2-[(5-chloro-1-methyl-1H-pyrazol-4-yl)amino]quinazolin-7-yl}piperidin-1-yl)oxolan-3-ol] | >9.20 | – |
| Cc1c(Nc2ncc3cc(Cl)c(C4CCN([C@H]5COC[C@H]5O)CC4)cc3n2)cnn1C (single isomer, unassigned) [Ex-2.67, (3S,4S) or (3R,4R) 4-(4-{6-chloro-2-[(1,5-dimethyl-1H-pyrazol-4-yl)amino]quinazolin-7-yl}piperidin-1-yl)oxolan-3-ol] | >9.20 | – |
| Cc1cc(Nc2ncc3cc(Cl)c(C4CCN([C@H]5COC[C@H]5O)CC4)cc3n2)n(C)n1 (single isomer, unassigned) [Ex-2.68, (3S,4S) or (3R,4R) 4-(4-{6-chloro-2-[(1,3-dimethyl-1H-pyrazol-5-yl)amino]quinazolin-7-yl}piperidin-1-yl)oxolan-3-ol] | >9.20 | – |
| [2H]C([2H])([2H])n1nc(C)cc1Nc1ncc2cc(Cl)c(C3CCN([C@H]4COC[C@H]4O)CC3)cc2n1 (single isomer, unassigned) [Ex-2.69, (3S,4S) or (3R,4R) 4-(4-(6-chloro-2-((3-methyl-1-(methyl-d3)-1H-pyrazol-5-yl)amino)quinazolin-7-yl)piperidin-1-yl)tetrahydrofuran-3-ol] | 8.21 | – |
| [2H]C([2H])([2H])n1ncc(Nc2ncc3cc(Cl)c(C4CCN([C@H]5COC[C@H]5O)CC4)cc3n2)c1Cl (single isomer, unassigned) [Ex-2.70, (3S,4S) or (3R,4R) 4-(4-(6-chloro-2-((5-chloro-1-(methyl-d3)-1H-pyrazol-4-yl)amino)quinazolin-7-yl)piperidin-1-yl)tetrahydrofuran-3-ol] | >9.20 | – |
| Cc1c(Nc2ncc3cc(Cl)c(C4CCN(C5COC5)CC4)cc3n2)cnn1C1CC1(F)F (single isomer, unassigned) [Ex-2.73, (S) or (R) 6-chloro-N-[1-(2,2-difluorocyclopropyl)-5-methyl-1H-pyrazol-4-yl]-7-[1-(oxetan-3-yl)piperidin-4-yl]quinazolin-2-amine] | – | 0.955 |
| Cc1c(Nc2ncc3cc(Cl)c(C4CCN([C@@H]5COC[C@@H]5O)CC4)cc3n2)cnn1C(C)(C)C#N (single isomer, unassigned) [Ex-2.74, (3S,4S) or (3R,4R) 2-[4-({6-chloro-7-[1-(4-hydroxyoxolan-3-yl)piperidin-4-yl]quinazolin-2-yl}amino)-5-methyl-1H-pyrazol-1-yl]-2-methylpropanenitrile] | >9.20 | – |
| Cc1cc(Nc2ncc3cc(Cl)c(C4CCN([C@@H]5COC[C@@H]5O)CC4)cc3n2)n(C2CC2)n1 (single isomer, unassigned) [Ex-2.75, (3S,4S) or (3R,4R)4-(4-{6-chloro-2-[(1-cyclopropyl-3-methyl-1H-pyrazol-5-yl)amino]quinazolin-7-yl}piperidin-1-yl)oxolan-3-ol] | 8.63 | – |
| Cn1ncc(Nc2ncc3cc(Cl)c(C4CCN([C@]5(C)COC[C@@H]5O)CC4)cc3n2)c1Cl (single isomer, unassigned) [Ex-2.76, (3S,4S) or (3R,4R) 4-(4-(6-chloro-2-((5-chloro-1-methyl-1H-pyrazol-4-yl)amino)quinazolin-7-yl)piperidin-1-yl)-4-methyltetrahydrofuran-3-ol] | 7.76 | – |
| Cc1c(Nc2ncc3cc(Cl)c(C4CCN([C@]5(C)COC[C@@H]5O)CC4)cc3n2)cnn1C (single isomer, unassigned) [Ex-2.77, (3S,4S) or (3R,4R) 4-(4-{6-chloro-2-[(1,5-dimethyl-1H-pyrazol-4-yl)amino]quinazolin-7-yl}piperidin-1-yl)-4-methyloxolan-3-ol] | 8.01 | – |
| Cc1cc2cnc(Nc3cnn(C)c3Cl)nc2cc1C1CCN([C@@H]2COC[C@@H]2O)CC1 (single isomer, unassigned) [Ex-2.78, (3S,4S) or (3R,4R) 4-(4-{2-[(5-chloro-1-methyl-1H-pyrazol-4-yl)amino]-6-methylquinazolin-7-yl}piperidin-1-yl)oxolan-3-ol] | >9.20 | – |
| Cc1cc2cnc(Nc3cnn(C)c3C)nc2cc1C1CCN([C@@H]2COC[C@@H]2O)CC1 (single isomer, unassigned) [Ex-2.79, (3S,4S) or (3R,4R) 4-(4-{2-[(1,5-dimethyl-1H-pyrazol-4-yl)amino]-6-methylquinazolin-7-yl}piperidin-1-yl)oxolan-3-ol] | >9.20 | – |
